Test system: MDA-MB-468 multi-cell spheroids, viability
Test: Anticancer human tumor MDA-MB-468 cell line growth inhibition [IpAb];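 further: spheroids exposed to agents for seven days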;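 on viability, T/C: 100% = DMSO vehicle control viability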
Conditions: for IC50: curve of first compound; for viability, T/C: stronger effect = lower value
Description: Combinatorial screen of targeted agents with ipatasertib and abemaciclib in multi-cell type tumor spheroids
A high-throughput screen of multi-cell type tumor spheroids was designed to identify active combinations of targeted small molecules and ipatasertib or abemaciclib. Complex spheroids include a stromal component modeled by human endothelial cells (HUVEC) and fibroblasts modeled by human mesenchymal stem cells (MSCs). The concentration ranges selected for each drug and investigational agent were based upon clinically achievable concentrations if the clinical Cmax of the agent was known.
Compounds. The drugs and investigational agents: ipatasertib (NSC767898), abemaciclib(NSC768073), selumetinib (NSC741078), trametinib (758246), adavosertib (NSC754352), everolimus (NSC733504), sapanisertib (NSC764658), vemurafenib (NSC761431), venetoclax (NSC766270), copanlisib (NSC809693), apelisib (NSC765974), palbociblib (NSC758247), vemurafenib (NSC761431), dabrafenib (NSC764134), ravoxertinib (NSC781343), BMS-387032 (NSC767048), sotorasib (NSC818433), talazoparib (NSC767125) and afursertib (NSC778305), were obtained from the National Cancer Institute (NCI) Developmental Therapeutics Program Chemical Repository. The FDA-approved anticancer drug set is available from the NCI Developmental Therapeutics Program. […] The stock solutions were prepared in dimethyl sulfoxide (DMSO, Sigma-Aldrich, St. Louis, MO, cat. D2650) at 800-fold the tested concentration and stored at -70 degrees C prior to their use. All drugs and investigational agents were tested over a range starting from a high concentration at or near the clinical Cmax and decreasing in half-log increments. If the clinical Cmax for an agent had not been determined, the highest concentration tested was 10 microM.
NCI60 Cell Culture. NCI60 cell lines were obtained from the NCI Developmental Therapeutics Program Tumor Repository. For each lot of cells, the Repository performed Applied Biosystems AmpFLSTR Identifiler testing with PCR amplification to confirm consistency with the published Identifier STR profile for each cell line. Cells were kept in continuous culture for no more than 20 passages. The optimal seeding densities for each of the cell lines at each time point assessed were determined prior to performing the concentration response studies. Briefly, the NCI60 human tumor lines were grown as monolayers in RPMI 1640 medium supplemented with 10% FBS and 2 mmol/L L-glutamine.
An additional 9 lines were from the NCI60 cell line panel including MDA-MB-231 breast carcinoma, MDA-MB-468 breast carcinoma, MCF7 breast carcinoma, Hs578T breast carcinoma, MALME-3M melanoma, SK-MEL-2 melanoma, SK-OV-3 ovarian carcinoma, DU-145 prostate carcinoma, PC-3 prostate carcinoma, all cell lines along with major genetic alterations are listed on Table 2. Pooled donor human umbilical vein endothelial cells (HUVEC, Lonza, cat. CC-2519) and human mesenchymal stem cells (hMSC, Lonza, cat. PT-2501) were purchased from Lonza (Walkersville, MD).
PDMR cell lines were grown in complete medium (DC medium): Dulbecco's modified Eagle's medium (DMEM)/F12 supplemented with 5% fetal bovine serum (FBS), 2 mM L-glutamine, 100 U/mL penicillin and 100 µg/ml streptomycin, 0.4 µg/ml hydrocortisone, 10 ng/ml epidermal growth factor (EGF) recombinant human protein, 24 µg/mL adenine, and 0.1 mg/mL primocin. During culture from frozen stock vials, PDMR cells were cultured in the same medium containing 10 µM Y-27632 (see Table 3). The PDCs were cultured in complete DMEM/F12 media without 10 microM Y-27632 dihydrochloride for at least two passages prior to the screen. The pooled donor HUVEC and hMSC were cultured in endothelial cell growth medium 2 (PromoCell, Heidelberg, Germany, cat. C-22011) and mesenchymal stem cell growth medium 2 (PromoCell, cat. C-28009), respectively. For all experiments, HUVEC and hMSC were used at passages </=5.
[…]

[1] = second compound 0.1 µM, first compound 0.0316 µM
[2] = second compound 0.1 µM, first compound 0.1 µM
[3] = second compound 0.1 µM, first compound 0.316 µM
[4] = second compound 0.1 µM, first compound 1 µM
[5] = second compound 0.1 µM, first compound 3.16 µM
[6] = second compound 0.1 µM, first compound 10 µM
[7] = second compound 0.316 µM, first compound 0.0316 µM
[8] = second compound 0.316 µM, first compound 0.1 µM
[9] = second compound 0.316 µM, first compound 0.316 µM
[10] = second compound 0.316 µM, first compound 1 µM
[11] = second compound 0.316 µM, first compound 3.16 µM
[12] = second compound 0.316 µM, first compound 10 µM
[13] = second compound 1 µM, first compound 0.0316 µM
[14] = second compound 1 µM, first compound 0.1 µM
[15] = second compound 1 µM, first compound 0.316 µM
[16] = second compound 1 µM, first compound 1 µM
[17] = second compound 1 µM, first compound 3.16 µM
[18] = second compound 1 µM, first compound 10 µM

Cn1nccc1Nc1nccc(-c2ccn(C(CO)c3ccc(Cl)c(F)c3)c(=O)c2)n1 (stereo not given) + CCN1CCN(Cc2ccc(Nc3ncc(F)c(-c4cc(F)c5nc(C)n(C(C)C)c5c4)n3)nc2)CC1
IC50 (second compound 0.01 µM): 4.35 µM
IC50 (second compound 0.0316 µM): 4.7 µM
IC50 (second compound 0.1 µM): 3.83 µM
IC50 (second compound 0.316 µM): 4.19 µM
IC50 (second compound 1 µM): 4.42 µM
viability, T/C (second compound 0.01 µM, first compound 0.0316 µM): 92%
viability, T/C (second compound 0.01 µM, first compound 0.1 µM): 83%
viability, T/C (second compound 0.01 µM, first compound 0.316 µM): 86%
viability, T/C (second compound 0.01 µM, first compound 1 µM): 77.7%
viability, T/C (second compound 0.01 µM, first compound 3.16 µM): 70%
viability, T/C (second compound 0.01 µM, first compound 10 µM): 3.11%
viability, T/C (second compound 0.0316 µM, first compound 0.0316 µM): 93.3%
viability, T/C (second compound 0.0316 µM, first compound 0.1 µM): 77.9%
viability, T/C (second compound 0.0316 µM, first compound 0.316 µM): 71%
viability, T/C (second compound 0.0316 µM, first compound 1 µM): 84.6%
viability, T/C (second compound 0.0316 µM, first compound 3.16 µM): 73.1%
viability, T/C (second compound 0.0316 µM, first compound 10 µM): 6.23%
viability, T/C [1]: 93.6%
viability, T/C [2]: 87.5%
viability, T/C [3]: 86.2%
viability, T/C [4]: 83.1%
viability, T/C [5]: 58.5%
viability, T/C [6]: 5.62%
viability, T/C [7]: 104%
viability, T/C [8]: 92.2%
viability, T/C [9]: 89.2%
viability, T/C [10]: 78.7%
viability, T/C [11]: 68.2%
viability, T/C [12]: 9.01%
viability, T/C [13]: 86.5%
viability, T/C [14]: 78.8%
viability, T/C [15]: 74.5%
viability, T/C [16]: 85.9%
viability, T/C [17]: 64.2%
viability, T/C [18]: 15.3%

Cn1nccc1Nc1nccc(-c2ccn(C(CO)c3ccc(Cl)c(F)c3)c(=O)c2)n1 (stereo not given) + CC(C)NCC(C(=O)N1CCN(c2ncnc3c2C(C)CC3O)CC1)c1ccc(Cl)cc1
IC50 (second compound 0.1 µM): 3.29 µM
IC50 (second compound 0.316 µM): 1.35 µM
IC50 (second compound 1 µM): 0.417 µM
IC50 (second compound 3.16 µM): < 0.0316 µM
IC50 (second compound 10 µM): < 0.0316 µM
viability, T/C [1]: 90.7%
viability, T/C [2]: 88.3%
viability, T/C [3]: 85%
viability, T/C [4]: 65.3%
viability, T/C [5]: 57.3%
viability, T/C [6]: 2.08%
viability, T/C [7]: 66%
viability, T/C [8]: 54.9%
viability, T/C [9]: 62%
viability, T/C [10]: 46.3%
viability, T/C [11]: 44.3%
viability, T/C [12]: 0.8%
viability, T/C [13]: 57.9%
viability, T/C [14]: 56%
viability, T/C [15]: 51.3%
viability, T/C [16]: 42%
viability, T/C [17]: 16.4%
viability, T/C [18]: 0.2%
viability, T/C (second compound 3.16 µM, first compound 0.0316 µM): 38.6%
viability, T/C (second compound 3.16 µM, first compound 0.1 µM): 38.9%
viability, T/C (second compound 3.16 µM, first compound 0.316 µM): 37%
viability, T/C (second compound 3.16 µM, first compound 1 µM): 23.4%
viability, T/C (second compound 3.16 µM, first compound 3.16 µM): 5.84%
viability, T/C (second compound 3.16 µM, first compound 10 µM): 0.17%
viability, T/C (second compound 10 µM, first compound 0.0316 µM): 18.8%
viability, T/C (second compound 10 µM, first compound 0.1 µM): 15.8%
viability, T/C (second compound 10 µM, first compound 0.316 µM): 19%
viability, T/C (second compound 10 µM, first compound 1 µM): 9.63%
viability, T/C (second compound 10 µM, first compound 3.16 µM): 1.96%
viability, T/C (second compound 10 µM, first compound 10 µM): 0.26%

From PubChem BioAssay AID2060326 (Molecular Pharmacology Branch, DTP, NCI, 2025)
